Laboratory results taken from patent publication US6465490B1, “Sulfuric acid mono-[3({1-[2-(4-fluoro-phenyl)-ethyl]-piperidin-4-yl}-hydroxy-methyl)-2-methoxy-phenyl]ester” (Aventis Pharmaceuticals Inc., priority 1999, dated 2002).

Assay: Bovine Brain Endothelial Cells (BBMEC) transport studies, in vitro blood-brain barrier permeability
Format: in vitro ADME
Conditions: mean ± standard deviation
Method: The compounds of this invention are capable of crossing the blood-brain barrier (BBB) as shown by their ability to penetrate across a membrane of a monolayer of bovine brain microvessel endothelial cells, an in vitro model for B3B permeability.
Bovine Brain Endothelial Cells (BBMEC) TIransport Studies
The procedure was performed according to: Kenneth L. Audus et al., Brain Microvessel Endothelial Cell Culture System (Chapter 13) pp 239-258. In Models for Assessing Drug Absorption and Metabolism, Ronald T. Borchardt et al. eds., Plenum Press, New York 1996, incorporated herein by reference.

COc1c(O[Si](C(C)C)(C(C)C)C(C)C)cccc1C(OC(=O)[C@@H](OC)c1ccccc1)C1CCN(CCc2ccc(F)cc2)CC1 (stereo partly drawn) [Example 1C, (S)-Methoxy-2-phenyl-acetic acid {1-[2-(4-fluoro-phenyl)-ethyl]-piperidin-4-yl}-(2-methoxy-3-triisopropylsilanyloxy-phenyl)-methyl ester]
Papp at 5.4 µM (5.4 μM): 41.4 ± 16.4 ×10⁻⁶ cm/s
Papp at 16 µM (16 μM): 52.5 ± 9.5 ×10⁻⁶ cm/s
